Laboratory results taken from US8124793B2, “Derivatives of ethylene methanedisulfonate as cancer chemotherapeutic agents” (priority 2007, dated 2012).

How the values were obtained:
Format in all cases: cell-based
human cancer cells = assay: NCI screen summary over the cancers tested (negative growth of human cancer cells); conditions: cancers with negative growth / cancers tested
Method: (§1) In the NCI screening process, each compound was tested and described by a minimum of 60 data points. The test data include, but are not limited to the type of cancer, the molar concentration used in the screen, and the percent growth of the cancer. In some cases, NMR and elemental analysis were used for structural assignment.
The derivatives in the tables are grouped using the same category as in the tables 1-6.

HS 578T = assay: NCI screen, growth of human tumor cells: Breast Cancer HS 578T; conditions: HS 578T (Breast Cancer), 10^−4 molar
Procedure, shortened: (§2)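 At least 60 data points describe each compound tested by NCI. Cancer type, molar concentration in the screen and percent growth make up the recorded data.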

EKVX = assay: NCI screen, growth of human tumor cells: Non-Small Cell Lung EKVX; conditions: EKVX, 10^−4 molar
Procedure, shortened: as §2

MOLT-4 = assay: NCI screen, growth of human tumor cells: Leukemia MOLT-4; conditions: MOLT-4 (Leukemia), 10^−4 molar
Procedure, shortened: as §2

SW620 = assay: NCI screen, growth of human tumor cells: Colon Cancer SW620
Procedure, shortened: as §2

HCT-15 = assay: NCI screen, growth of human tumor cells: Colon Cancer HCT-15
Procedure, shortened: as §2

KM12 = assay: NCI screen, growth of human tumor cells: Colon Cancer KM12; conditions: KM12, 10^−4 molar
Procedure, shortened: as §2

SK-MEL-2 = assay: NCI screen, growth of human tumor cells: Melanoma SK-MEL-2
Procedure, shortened: as §2

NCI-H522 = assay: NCI screen, growth of human tumor cells: Non-Small Cell Lung NCI-H522
Procedure, shortened: as §2

RXF-393 = assay: NCI screen, growth of human tumor cells: Renal Cancer RXF-393
Procedure, shortened: as §2

COLO205 = assay: NCI screen, growth of human tumor cells: Colon Cancer COLO205
Procedure, shortened: as §2

UACC-62 = assay: NCI screen, growth of human tumor cells: Melanoma UACC-62
Procedure, shortened: as §2

MDA-MB-231/ATCC = assay: NCI screen, growth of human tumor cells: Breast Cancer MDA-MB-231/ATCC; conditions: for % Growth: MDA-MB-231 (ATCC)
Procedure, shortened: as §2

SK-OV-3 = assay: NCI screen, growth of human tumor cells: Ovarian Cancer SK-OV-3; conditions: SK-OV-3, 10^−4 molar
Procedure, shortened: as §2

HL-60 (TB) = assay: NCI screen, growth of human tumor cells: Leukemia HL-60 (TB); conditions: HL-60 (TB) (Leukemia), 10^−4 molar
Method: as §1

RPMI-8226 = assay: NCI screen, growth of human tumor cells: Leukemia RPMI-8226; conditions: RPMI-8226 (Leukemia), 10^−4 molar
Procedure, shortened: as §2

NCI-H460 = assay: NCI screen, growth of human tumor cells: Non-Small Cell Lung NCI-H460
Procedure, shortened: as §2

T-47D = assay: NCI screen, growth of human tumor cells: Breast Cancer T-47D; conditions: 10^−4 molar; for percent of growth of human tumor cells: T-47D (Breast Cancer)
Method: as §1

SF-539 = assay: NCI screen, growth of human tumor cells: CNS Cancer SF-539
Procedure, shortened: as §2

M14 = assay: NCI screen, growth of human tumor cells: Melanoma M14; conditions: M14, 10^−4 molar
Procedure, shortened: as §2

MDA-MB-435 = assay: NCI screen, growth of human tumor cells: Breast Cancer MDA-MB-435; conditions: MDA-MB-435, 10^−4 molar
Procedure, shortened: as §2

SMILES: CC1(C)OCC(COC(=O)C(=O)C2(Cc3ccc4c(c3)C(=O)c3ccccc3C4=O)S(=O)(=O)OCCOS2(=O)=O)O1 (stereo not drawn) [NSC 737276]
- Percentage of cancers showing negative growth cancers tested (human cancer cells; 10^−4 M conc.): 10^−4 M conc. = 49/55 = 89%
- percent of growth of human tumor cells (HS 578T): 17%
- % Growth (EKVX): −81%
- percent of growth of human tumor cells (MOLT-4): −26%
- % Growth (SW620; SW620, 10^−4 molar): −74%
- percent of growth of human tumor cells (HCT-15; HCT-15 (Colon Cancer), 10^−4 molar): −12%
- % Growth (KM12): −74%
- % Growth (SK-MEL-2; SK-MEL-2, 10^−4 molar): −62%
- % Growth (NCI-H522; NCI-H522, 10^−4 molar): −91%
- percent of growth of human tumor cells (RXF-393; RXF-393 (Renal Cancer), 10^−4 molar): −54%
- % Growth (COLO205; COLO205, 10^−4 molar): −96%
- % Growth (UACC-62; UACC-62, 10^−4 molar): −91%
- percent of growth of human tumor cells (MDA-MB-231/ATCC; MDA-MB-231/ATCC (Breast Cancer), 10^−4 molar): −9%
- % Growth (SK-OV-3): −67%
- percent of growth of human tumor cells (HL-60 (TB)): −3%
- percent of growth of human tumor cells (RPMI-8226): −35%
- percent of growth of human tumor cells (NCI-H460; NCI-H460 (Non-Small Cell Lung), 10^−4 molar): −59%
- percent of growth of human tumor cells (T-47D): −39%
- percent of growth of human tumor cells (SF-539; SF-539 (CNS Cancer), 10^−4 molar): −43%

SMILES: CC(=O)C1(CC2=C(C)C(=O)c3ccccc3C2=O)S(=O)(=O)OCCOS1(=O)=O [NSC 701690]
- Percentage of cancers showing negative growth cancers tested (human cancer cells; 10^−4 M conc.): 100%
- Percentage of cancers showing negative growth cancers tested (human cancer cells; 10^−5 M conc.): 5%
- Percentage of cancers showing negative growth cancers tested (human cancer cells; 10^−6 M conc.): 14%
- % Growth (EKVX): −91%
- % Growth (M14): −100%
- % Growth (SW620; SW620, 10^−4 molar): −100%
- % Growth (SW620; SW620, 10^−5 molar): 23%
- % Growth (SW620; SW620, 10^−6 molar): 54%
- % Growth (HCT-15; HCT-15, 10^−4 molar): −100%
- % Growth (KM12): −71%
- % Growth (SK-MEL-2; SK-MEL-2, 10^−4 molar): −73%
- % Growth (SK-MEL-2; SK-MEL-2, 10^−5 molar): 7%
- % Growth (SK-MEL-2; SK-MEL-2, 10^−6 molar): −2%
- % Growth (SK-MEL-2; SK-MEL-2, 10^−7 molar): −8%
- % Growth (SK-MEL-2; SK-MEL-2, 10^−8 molar): −3%
- % Growth (MDA-MB-435): −95%
- % Growth (NCI-H522; NCI-H522, 10^−4 molar): −100%
- % Growth (NCI-H522; NCI-H522, 10^−5 molar): 35%
- % Growth (NCI-H522; NCI-H522, 10^−6 molar): 57%
- % Growth (NCI-H522; NCI-H522, 10^−7 molar): 77%
- % Growth (NCI-H522; NCI-H522, 10^−8 molar): 67%
- % Growth (RXF-393; RXF-393, 10^−4 molar): −69%
- % Growth (COLO205; COLO205, 10^−4 molar): −100%
- % Growth (COLO205; COLO205, 10^−5 molar): 60%
- % Growth (COLO205; COLO205, 10^−6 molar): 58%
- percent of growth of human tumor cells (UACC-62; UACC-62 (Melanoma), 10^−4 molar): −57%
- % Growth (MDA-MB-231/ATCC; 10^−4 molar): −41%
- % Growth (MDA-MB-231/ATCC; 10^−5 molar): 39%
- % Growth (MDA-MB-231/ATCC; 10^−6 molar): 56%
- % Growth (MDA-MB-231/ATCC; 10^−7 molar): 58%
- % Growth (MDA-MB-231/ATCC; 10^−8 molar): 45%
- percent of growth of human tumor cells (RPMI-8226): −18%
- % Growth (NCI-H460; NCI-H460, 10^−4 molar): −100%
- % Growth (NCI-H460; NCI-H460, 10^−5 molar): 42%
- percent of growth of human tumor cells (T-47D): −54%
- % Growth (T-47D; T-47D): −54%
- % Growth (SF-539; SF-539, 10^−4 molar): −100%
- % Growth (SF-539; SF-539, 10^−5 molar): 44%
